Experimental data published in publication PMC4957924, “Prediction and verification of novel peptide targets of protein tyrosine phosphatase 1B” (Bioorganic & Medicinal Chemistry, 2016).
Like-named read-outs stand apart in the source and are kept apart here.

How the values were obtained:
PTP1B [1] = target: T1, PTP1B (Homo sapiens, UniProt P18031); experiment: in vitro EnzChek phosphate assay of PTP1B against synthesized phosphopeptides; assay type: biochemical; details: for kcat/Km / Km: peptide as substrate of PTP1B, value ± spread as printed; for recognition as substrate by PTP1B (in words): compared with Src positive control peptide
T1 construct: PTP1B was expressed and purified as described previously; made in house
T1 sequence (P18031 1-435): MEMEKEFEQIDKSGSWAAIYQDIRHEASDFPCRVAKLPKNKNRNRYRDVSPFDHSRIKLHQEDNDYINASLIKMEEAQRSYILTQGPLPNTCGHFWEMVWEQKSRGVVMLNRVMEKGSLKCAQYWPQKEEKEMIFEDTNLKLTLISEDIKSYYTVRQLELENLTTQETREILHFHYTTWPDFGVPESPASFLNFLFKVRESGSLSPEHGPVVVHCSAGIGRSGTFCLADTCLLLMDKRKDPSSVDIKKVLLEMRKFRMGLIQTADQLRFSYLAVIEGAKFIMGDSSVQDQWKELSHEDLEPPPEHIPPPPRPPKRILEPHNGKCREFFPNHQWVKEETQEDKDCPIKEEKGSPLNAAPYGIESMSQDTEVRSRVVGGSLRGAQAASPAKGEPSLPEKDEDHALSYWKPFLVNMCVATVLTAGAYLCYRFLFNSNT
Method: (§1) To test if the predicted phosphopeptides would indeed be in vitro substrates of PTP1B, we synthesized six of these peptides. The two peptides from JAK1 were not synthesized and tested because the sequences are highly similar to the ones of the known substrates JAK2[20] and MET[21] that were also detected by our procedure. […] (Table 1).
PTP1B was expressed and purified as described previously.[3]
The in vitro EnzChek phosphate assay was carried out with the commercial kit from Molecular Probes as described previously.[23]

[2] = Solubility of synthesized peptide (observation); assay type: physicochemical; details: qualitative; peptide therefore not tested in the enzymatic assay
Description: as §1

PTP1B [3] = target: T1, PTP1B; details: JAK2-derived phosphopeptide as PTP1B substrate; cited from earlier work
Description: as §1, with “With the ex ...” for “(Table 1).”

Row | Substance | kcat/Km (PTP1B [1]) | Km (PTP1B [1]; read-out: Km) | also measured
1 | EEEDIpYEVLPD [Peptide 2, Predicted PTP1B phosphopeptide substrate from SKAP1, pY site 271] | 27.9 ± 13.9 ×10^−5 M^−1 s^−1 | 14.7 ± 3.2 µM | 
2 | IEDNEYTARQG [Fyn peptide, synthesized predicted phosphopeptide from Fyn] |  |  | solubility [2]: poor solubility
3 | LGSRApYPHFCA [Peptide 8] |  | > 300 µM | recognition as substrate by PTP1B (in words) (PTP1B [1]): recognized it poorly
4 | QENPIpYKSPIN [Peptide 5, Predicted PTP1B phosphopeptide substrate from ITGB1, pY site 783] | 7.1 ± 3.0 ×10^−5 M^−1 s^−1 | 21.7 ± 8.9 µM | 
5 | KKKKpYPKK [Peptide 7, reference compound] | Inactive |  | recognition as substrate by PTP1B (in words) (PTP1B [1]): not recognized; Km (PTP1B [1]): Inactive
6 | KEpYpYKVK |  |  | Km (PTP1B [3]): 12.7 µM; kcat/Km (PTP1B [3]): 0.000232 M⁻¹ s⁻¹
7 | DNEDVpYTFKTP [Peptide 3, Predicted PTP1B phosphopeptide substrate from GAB2, pY site 293] | 9.2 ± 1.6 ×10^−5 M^−1 s^−1 | 17.1 ± 4.1 µM | 
8 | DPSDNpYAEPID [Peptide 1, Predicted PTP1B phosphopeptide substrate from ARHGAP5, pY site 1090] | 11.6 ± 3.4 ×10^−5 M^−1 s^−1 | 28.5 ± 5 µM | 
9 | IEDPpYpYGNDSD [Peptide 4, Predicted PTP1B phosphopeptide substrate from ACP1, pY site 133] | 8.9 ± 1.1 ×10^−5 M^−1 s^−1 | 20.1 ± 4.6 µM | 
10 | STEPQpYQPGEN [Peptide 6, positive control peptide from Src as known substrate of PTP1B, reference compound] | 9.0 ± 3.7 ×10^−5 M^−1 s^−1 | 29.1 ± 5.3 µM | 
